Key:
Assay type in all cases: biochemical
[1] = system: Norepinephrine uptake (3H-norepinephrine, hippocampus synaptosomes); assay: Inhibition of norepinephrine uptake in rat brain synaptosomes (hippocampus); settings: for IC50: rat hippocampus synaptosomes, 3H-norepinephrine, 37° C., read-out: Inhibition of neurotransmitter uptake in synaptosomes, Norepinephrine IC 50
Source text: (§1) The mode of action of a group of therapeutically frequently used antidepressants (for example tricyclic antidepressants) include the inhibition of the neuronal uptake of transmitter substances (norepinephrine, dopamine, serotonin). This property is utilized in biological test models to characterize potential antidepressants.
(§2) The following method was used: Inhibition of neurotransmitter uptake in rat brain synaptosomes
(§3) Hippocampus, corpus striatum and cortex of rat brains were dissected out and homogenized in 0.32M sucrose solution. Differential centrifugation gave synaptosomes which were suspended in buffer solution. Synaptosomes are capable of actively taking up added neurotransmitter substances (for example norepinephrine, dopamine, serotonin) from the surrounding medium. With the aid of uptake inhibitors it is possible to counteract this process to a degree which depends on the concentration. The synaptosomes were mixed with the test substances in various concentrations and then incubated at 37° C. with ^3 H-norepinephrine (hippocampus), ^3 H-dopamine (corpus striatum) and ^3 H-serotonin (cortex). The substrate concentration was about […]. The uptake was determined by dilution with ice-cold buffer solution; thereafter the synaptosomes were separated off by centrifugation, and the ^3 H activity was measured in the sediment. A blank value was determined by incubating at 0° C.
(§4) The median inhibitory concentration (IC 50) was calculated from the inhibitor values found for the various inhibitor concentrations by comparison with the blank test by linear regression following logit-log conversion.

[2] = system: Serotonin uptake (3H-serotonin, cortex synaptosomes); assay: Inhibition of serotonin uptake in rat brain synaptosomes (cortex); settings: 37° C., read-out: Inhibition of neurotransmitter uptake in synaptosomes, Serotonin IC 50
Source text: as §1, §2, §3, §4

[3] = system: Dopamine uptake (3H-dopamine, corpus striatum synaptosomes); assay: Inhibition of dopamine uptake in rat brain synaptosomes (corpus striatum); settings: for IC50: rat corpus striatum synaptosomes, 3H-dopamine, 37° C., read-out: Inhibition of neurotransmitter uptake in synaptosomes, Dopamine IC 50
Source text: as §1, §2, §3, §4

SMILES	IC50 [1] [nM]	IC50 [2] [nM]	IC50 [3] [nM]	potency of inhibition of noradrenaline uptake compared with imipramine, in words [1]	inhibition of dopamine uptake, in words ([3]; qualitative statement)
CCN1CC[C@@H](c2ccccc2)[C@H]1/C=C/c1ccccc1 (relative stereo) [Example 2 cis, cis-3-phenyl-2-trans-styryl-N-ethylpyrrolidine]	43	> 1000	180		
CN1CC[C@@H](c2ccccc2)[C@@H]1/C=C/c1ccccc1 (relative stereo) [Example 1 trans, trans-3-phenyl-2-trans-styryl-N-methylpyrrolidine]	7.3	> 1000	92	appreciably exceeded by the compounds according to the invention	
CCCN1CC[C@@H](c2ccccc2)[C@@H]1/C=C/c1ccccc1 (relative stereo) [Example 3 trans, trans-3-phenyl-2-trans-styryl-N-n-propylpyrrolidine]	160	> 1000	400		
CCCN1CC[C@@H](c2ccccc2)[C@H]1/C=C/c1ccccc1 (relative stereo) [Example 3 cis, cis-3-phenyl-2-trans-styryl-N-n-propylpyrrolidine]		> 1000			
CN(C)CCCN1c2ccccc2CCc2ccccc21 [Imipramine, reference compound]	14	130	> 1000		not possessed by imipramine
CN1CC[C@@H](c2ccccc2)[C@H]1/C=C/c1ccccc1 (relative stereo) [Example 1 cis, cis-3-phenyl-2-trans-styryl-N-methylpyrrolidine]	29	> 1000	120		
CCN1CC[C@@H](c2ccccc2)[C@@H]1/C=C/c1ccccc1 (relative stereo) [Example 2 trans, trans-3-phenyl-2-trans-styryl-N-ethylpyrrolidine]	5.5	> 1000	23	appreciably exceeded by the compounds according to the invention	

Reference: patent US4824862A, “3-phenyl-2-styrylpyrrolidines, preparation and use thereof” (BASF Aktiengesellschaft, priority 1987, dated 1989)
